Measurements as given in ChEMBL document CHEMBL4477227, “Synthesis and antibacterial evaluation of macrocyclic diarylheptanoid derivatives” (Bioorg Med Chem Lett, 2016).
Converted amounts (≈) assume the structure as drawn.

What was measured:
Escherichia coli [1] = experiment: Antibacterial activity against Escherichia coli harboring TolC deletion mutant by microbroth dilution method; format: functional; conditions: Escherichia coli; read-out: MIC
Proteus mirabilis = experiment: Antibacterial activity against Proteus mirabilis ATCC 25933 by microbroth dilution method; format: functional
Bacillus anthracis = experiment: Antibacterial activity against Bacillus anthracis Sterne 34F2 by microbroth dilution method; format: functional; conditions: Bacillus anthracis, Sterne 34F2; read-out: MIC
[2] = test system: Mycobacterium tuberculosis; experiment: Antitubercular activity against Mycobacterium tuberculosis H37Rv by microbroth dilution method; format: functional; conditions: Mycobacterium tuberculosis, H37Rv; read-out: MIC
Proteus vulgaris = experiment: Antibacterial activity against Proteus vulgaris ATCC 33420 by microbroth dilution method; format: functional
Streptococcus pneumoniae = experiment: Antibacterial activity against Streptococcus pneumoniae R6 by microbroth dilution method; format: functional; conditions: Streptococcus pneumoniae, R6; read-out: MIC
Enterococcus faecalis = experiment: Antibacterial activity against Enterococcus faecalis ATCC 33186 by microbroth dilution method; format: functional; conditions: Enterococcus faecalis, ATCC 33186; read-out: MIC
Staphylococcus aureus [3] = experiment: Antibacterial activity against methicillin-resistant Staphylococcus aureus NRS70 by microbroth dilution method; format: functional; conditions: Staphylococcus aureus, NRS70; read-out: MIC
Staphylococcus aureus [4] = experiment: Antibacterial activity against methicillin-sensitive Staphylococcus aureus ATCC 29213 by microbroth dilution method; format: functional; conditions: Staphylococcus aureus, ATCC 29213; read-out: MIC
Escherichia coli [5] = experiment: Antibacterial activity against Escherichia coli K-12 by microbroth dilution method; format: functional
Bacillus subtilis = experiment: Antibacterial activity against Bacillus subtilis ATCC 23857 by microbroth dilution method; format: functional; conditions: Bacillus subtilis, ATCC 23857; read-out: MIC
Burkholderia cepacia = experiment: Antibacterial activity against Burkholderia cepacia ATCC 25416 by microbroth dilution method; format: functional
Pseudomonas aeruginosa = experiment: Antibacterial activity against Pseudomonas aeruginosa PAO1 by microbroth dilution method; format: functional
Klebsiella pneumoniae = experiment: Antibacterial activity against Klebsiella pneumoniae ATCC 33495 by microbroth dilution method; format: functional
Acinetobacter baumannii = experiment: Antibacterial activity against Acinetobacter baumannii ATCC 19606 by microbroth dilution method; format: functional, ATCC 19606 = CIP 70.34 = JCM 6841; conditions: Acinetobacter baumannii, ATCC 19606 = CIP 70.34 = JCM 6841; read-out: MIC
Streptococcus pyogenes = experiment: Antibacterial activity against Streptococcus pyogenes ATCC 700294 by microbroth dilution method; format: functional; conditions: Streptococcus pyogenes, ATCC 700294; read-out: MIC

SMILES	MIC (Escherichia coli [1]) [µg/mL]	MIC (Proteus mirabilis) [µg/mL]	MIC (Bacillus anthracis) [µg/mL]	MIC [2] [µg/mL]	MIC (Proteus vulgaris) [µg/mL]	MIC (Streptococcus pneumoniae) [µg/mL]	MIC (Enterococcus faecalis) [µg/mL]	MIC (Staphylococcus aureus [3]) [µg/mL]	MIC (Staphylococcus aureus [4]) [µg/mL]	MIC (Escherichia coli [5]) [µg/mL]	MIC (Bacillus subtilis) [µg/mL]	MIC (Burkholderia cepacia) [µg/mL]	MIC (Pseudomonas aeruginosa) [µg/mL]	MIC (Klebsiella pneumoniae) [µg/mL]	MIC (Acinetobacter baumannii) [µg/mL]	MIC (Streptococcus pyogenes) [µg/mL]
COc1ccc2cc1Oc1cc(ccc1OC)CCC(NCCCCc1ccccc1)CCCC2 (stereo not drawn)	12.5 (≈ 26.4 µM)	> 100	50 (≈ 106 µM)	25 (≈ 52.8 µM)	> 100	50 (≈ 106 µM)	25 (≈ 52.8 µM)	25 (≈ 52.8 µM)	25 (≈ 52.8 µM)	> 100	12.5 (≈ 26.4 µM)	> 100	> 100	> 100	100 (≈ 211 µM)	12.5 (≈ 26.4 µM)
COc1ccc2cc1Oc1cc(ccc1OC)CCC(NC(=O)CCc1ccccc1)CCCC2 (stereo not drawn)	> 100	> 100	> 100	> 100	> 100	> 100	> 100	> 100	> 100	> 100	> 100	> 100	> 100	> 100	> 100	> 100
COc1ccc2cc1Oc1cc(ccc1OC)CCC(N)CCCC2 (stereo not drawn)	100 (≈ 293 µM)	> 100	100 (≈ 293 µM)	200 (≈ 586 µM)	> 100	200 (≈ 586 µM)	200 (≈ 586 µM)	200 (≈ 586 µM)	200 (≈ 586 µM)	200 (≈ 586 µM)	100 (≈ 293 µM)	> 100	> 100	> 100	200 (≈ 586 µM)	200 (≈ 586 µM)
Oc1ccc2cc1Oc1cc(ccc1O)CCC(NCc1ccccc1)CCCC2 (stereo not drawn)	50 (≈ 124 µM)	> 100	> 50	100 (≈ 248 µM)	> 100	> 50	> 50	> 50	> 50	> 50	> 50	> 100	> 100	> 100	> 50	> 50
COc1ccc(CCNC2CCCCc3ccc(OC)c(c3)Oc3cc(ccc3OC)CC2)cc1OC (stereo not drawn)	> 100	> 100	> 100	100 (≈ 198 µM)	> 100	> 100	> 100	> 100	> 100	> 100	> 100	> 100	> 100	> 100	> 100	> 100
COc1ccc2cc1Oc1cc(ccc1OC)CCC(OC(=O)Cc1ccccc1)CCCC2 (stereo not drawn)	> 100	> 100	> 100	> 100	> 100	> 100	> 100	> 100	> 100	> 100	> 100	> 100	> 100	> 100	> 100	> 100
COc1ccc2cc1Oc1cc(ccc1OC)CCC(Nc1ccc(Cl)cc1)CCCC2 (stereo not drawn)	> 100	> 100	> 100	> 100	> 100	> 100	> 100	> 100	> 100	> 100	> 100	> 100	> 100	> 100	> 100	> 100
COc1ccc2cc1Oc1cc(ccc1OC)CCC(NCCc1cccc(F)c1)CCCC2 (stereo not drawn)	25 (≈ 53.9 µM)	> 100	50 (≈ 108 µM)	25 (≈ 53.9 µM)	> 100	50 (≈ 108 µM)	25 (≈ 53.9 µM)	25 (≈ 53.9 µM)	50 (≈ 108 µM)	> 100	12.5 (≈ 27 µM)	> 100	> 100	> 100	50 (≈ 108 µM)	50 (≈ 108 µM)
